For one data set, the system named is Sprague Dawley rats. The experiment in a line: 28-day oral toxicity study with 14-day recovery (GLP). Type of data set: in vivo. The source says:
(§1) We next set out to determine the toxicity and toxicokinetics of SRP-001 when administered via oral gavage once daily to Sprague–Dawley Rats for 28 d (Calvert Labs/Altasciences, Scott Township, PA USA). The study also assessed the reversibility of any toxicity observed with a 14-d recovery period. One hundred thirty-six experimentally naïve Sprague–Dawley rats (68 males and 68 females), 8 weeks old and weighing 167–295 g for males and females at the outset of the study, were assigned to toxicology treatment groups (Groups 1–4) or toxicokinetic groups (Groups 5–7). For toxicology groups, 10 animals/sex/dose were administered 0, 300, 900, or 1500 mg/kg/d SRP-001. An additional 5 animals/sex/dose in Groups 1 and 4 were targeted for a 14-d recovery period and euthanized on day 43. For toxicokinetic groups, 6 animals/sex/dose were administered 300, 900, or 1500 mg/kg/d SRP-001. Mortality/morbidity was performed twice daily and once prior to scheduled sacrifice. Animals in Groups 1–4 were observed prior to each dose administration and 1–3 h post-dose. Animals in Groups 1–4 were also observed once daily on non-dosing days and once prior to scheduled sacrifice. Body weights were recorded prior to randomization/selection, prior to dose administration on day 1, and weekly thereafter. Food consumption was determined weekly for animals in Groups 1–4. Ophthalmology examinations were performed before treatment initiation and during the last week of dosing for animals in Groups 1–4. The functional observational battery was assessed for 5 animals/sex/group in Groups 1–4 once prior to dosing and at 1–2 h following dose administration on day 1. Blood for evaluation of hematology, coagulation, and clinical chemistry and urine for urinalysis was collected from animals in Groups 1–4 on day 29 or day 43. Blood for toxicokinetic evaluation was collected from animals in Groups 5–7 at selected timepoints on days 1 and 28. All surviving animals in Groups 1–4 were sacrificed on day 29 or day 43. Selected tissues were harvested at necropsy, selected organs weighed, and selected tissues evaluated microscopically.
(§2) Following dosing, the reversibility of any toxicity observed was assessed with a 14-d recovery period of animals receiving 0 or 1500 mg/kg of SRP-001. SRP-001-related clinical signs included red staining around the forepaw, forelimbs, mouth, muzzle, and nose and brown-staining in the anogenital area. […] The majority of clinical signs were observed during the first 3 weeks of dosing, and by day 28, the majority of the animals appeared normal. […] These differences remained within or close to the historically normal ranges. Statistically significant differences in total protein, globulin, and mean corpuscular hemoglobin remained present in males after the recovery period, although at a smaller magnitude. SRP-001-related microscopic findings were limited to the liver and included minimal to mild centrilobular hepatocellular hypertrophy in both sexes at ≥ 300 mg/kg/d. This finding correlated with statistically significant increases in liver weights in both sexes.
(§3) Exposure to SRP-001 following oral gavage dosing at 300, 900, and 1500 mg/kg SRP-001 was dose-dependent, increasing with escalating doses following a single dose. […] Based on the parameters observed, the no-adverse effect level (NOAEL) of SRP-001, when administered once daily for 28 d to Sprague–Dawley rats, was 1500 mg/kg.

Assay in data set [1]: as above
Type of data set: in vivo, rats. The settings on record: both sexes, Sprague-Dawley, rat, in vivo, oral; once daily for 28 days; read-out: No-adverse effect level (NOAEL).
Text: as §1, §2, §3

The subject of a further data set is beagle dogs. The experiment in a line: Single oral dose (capsule) toxicity and pharmacokinetic study (non-GLP). In kind it is in vivo. The settings on record: single dose 300 mg/kg. The procedure: SRP-001 was prepared into capsules for oral administration. Three experimentally non-naïve Beagle dogs, at least 7 months old and weighing 7.7 to 10 kg prior to treatment initiation, were administered a single dose of 300 mg/kg SRP-001 (Calvert Labs/Altasciences, Scott Township, PA USA). On the day of dosing, animals were observed prior to dose administration, approximately 1–3 h post-dose, and once on day 2. Body weights were recorded for all animals prior to dose administration for the preparation of the capsules. Blood for bioanalytical evaluation was collected at selected timepoints on day 1. Following the completion of the study, surviving animals were not euthanized. They were returned to the Calvert colony for an appropriate washout period before possible use in a subsequent study. […] Plasma samples were collected at seven different time points post-dose.

Structures are written as SMILES.

With `CCN(CC)C(=O)c1ccccc1S(=O)(=O)NCC(=O)Nc1ccc(O)cc1` [SRP-001, N,N-diethyl-2-[[2-(4-hydroxyanilino)-2-oxo-ethyl]sulfamoyl]benzamide], in the data set on Sprague Dawley rats (300, 900, 1500 mg/kg, single dose and 28 days), the Exposure versus dose entry is given as “dose-dependent”. Moreover, the “Body weight, food consumption, functional observation battery, ophthalmology, coagulation, urinalysis” value with Sprague Dawley rats (300, 900, 1500 mg/kg/d) is on record as “no SRP-001-related effects”. The “Doses without treatment-related adverse effects” value in the data set on Sprague Dawley rats (28 days of daily oral doses, rats) is “up to 1500 mg/kg/day”. Besides, the “Doses with minimal to mild centrilobular hepatocellular hypertrophy (non-adverse)” value with Sprague Dawley rats (both sexes, 28 d) is at least 300 mg/kg/day. In data set [1], the NOAEL – broadly, the highest dose or exposure tested at which no adverse effect was seen – at 28 d was 1500 mg/kg. Further, in the data set on beagle dogs, the “Bioavailability (bioanalytical analysis of plasma)” value was “poor bioavailability” and the Tolerability result was “well tolerated”.

These data come from publication PMC11096368, “Transcriptomic signature, bioactivity and safety of a non-hepatotoxic analgesic generating AM404 in the midbrain PAG region” (Scientific Reports, 2024).
